Assay results from patent US20130252930A1 (BIOMARIN PHARMACEUTICAL INC., priority 2010, published 2013).

Molecular target: T1, CYP17 (human testicular microsome) (Homo sapiens, UniProt P05093)
T1 construct: using microsomal fraction from human testis (Celsis Cat #S00110) as the enzyme source; tissue Celsis S00110; host or cells: human testis microsomal fraction
T1 sequence (P05093 1-508): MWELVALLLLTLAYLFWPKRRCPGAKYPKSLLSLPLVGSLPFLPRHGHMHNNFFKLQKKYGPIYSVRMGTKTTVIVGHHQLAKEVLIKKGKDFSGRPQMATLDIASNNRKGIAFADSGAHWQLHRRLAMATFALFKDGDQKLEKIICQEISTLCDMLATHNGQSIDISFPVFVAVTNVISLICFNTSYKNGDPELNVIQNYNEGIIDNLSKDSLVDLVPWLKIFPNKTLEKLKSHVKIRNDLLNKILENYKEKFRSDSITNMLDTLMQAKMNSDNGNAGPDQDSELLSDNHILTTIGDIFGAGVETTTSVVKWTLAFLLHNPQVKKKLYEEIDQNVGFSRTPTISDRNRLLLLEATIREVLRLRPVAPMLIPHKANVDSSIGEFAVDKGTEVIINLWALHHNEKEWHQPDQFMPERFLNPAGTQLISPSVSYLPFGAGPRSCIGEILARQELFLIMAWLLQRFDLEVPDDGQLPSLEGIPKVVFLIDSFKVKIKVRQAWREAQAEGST
Test: CYP17 enzymatic assay (IC50) (Biological Example 4)
Type: biochemical
Details: human testicular microsome; read-out: CYP17 enzymatic assay IC50 (Biological Example No. 4)

Row | IC50 [nM] | SMILES
1 | < 11 | Cc1cncc(C2=CC=C3[C@@H]4CCC5CC(=O)NCC[C@]5(C)[C@H]4CC[C@]23C)c1 (stereo partly drawn) [Compound 460, (5aS,5bS,7aS,10bR)-5a,7a-dimethyl-8-(5-methylpyridin-3-yl)-3,4,5,5a,5b,6,7,7a,10b,11,12,12a-dodecahydrocyclopenta[5,6]naphtho[1,2-d]azepin-2(1H)-one]

Molecular target: T1, CYP17 (human testicular microsome)
Test: CYP17 enzymatic assay (% inhibition at 10 nM), version 1 (Biological Example 5)
Type: biochemical
Details: 10 nM compound, DHEA by ELISA, read-out: Biological Example No. 5: CYP17 percent inhibition at 10 nM (version 1)

Row | SMILES | inhibition at 0.01 µM [%]
2 | Cc1cncc(C2=CC[C@H]3[C@@H]4CCN5CCCCC[C@]5(C)[C@H]4CC[C@]23C)c1 [Compound 45, (11aR,13aS)-11a,13a-dimethyl-1-(5-methylpyridin-3-yl)-3a,3b,4,5,7,8,9,10,11,11a,11b,12,13,13a-tetradecahydro-3H-azepino[2,1-a]cyclopenta[f]isoquinoline] | 1 to 50
3 | COc1cncc(C2=CC[C@H]3[C@@H]4CCN5CCCCC[C@]5(C)[C@H]4CC[C@]23C)c1 [Compound 47, (11aR,13aS)-1-(5-methoxypyridin-3-yl)-11a,13a-dimethyl-3a,3b,4,5,7,8,9,10,11,11a,11b,12,13,13a-tetradecahydro-3H-azepino[2,1-a]cyclopenta[f]isoquinoline] | 1 to 50
4 | CCc1cncc(C2=CC[C@H]3[C@@H]4CC=C5CCCC[C@]5(C)[C@H]4CC[C@]23C)c1 [Compound 64, 3-((10R,13S)-10,13-dimethyl-2,3,4,7,8,9,10,11,12,13,14,15-dodecahydro-1H-cyclopenta[a]phenanthren-17-yl)-5-ethylpyridine] | 1 to 50
5 | Cc1cncc(C2=CC[C@H]3[C@@H]4CC=C5CCCC[C@]5(C)[C@H]4CC[C@]23C)c1 [Compound 65, 3-((10R,13S)-10,13-dimethyl-2,3,4,7,8,9,10,11,12,13,14,15-dodecahydro-1H-cyclopenta[a]phenanthren-17-yl)-5-methylpyridme] | 50 to 80
6 | COc1cncc(C2=CC[C@H]3[C@@H]4CC=C5CCCC[C@]5(C)[C@H]4CC[C@]23C)c1 [Compound 66, 3-((10R,13S)-10,13-dimethyl-2,3,4,7,8,9,10,11,12,13,14,15-dodecahydro-1H-cyclopenta[a]phenanthren-17-yl)-5-methoxypyridine] | 50 to 80
7 | C[C@]12CCCCC[C@@H]1CC[C@@H]1[C@@H]2CC[C@]2(C)C(c3cnccc3Cl)=CC[C@@H]12 [Compound 96, 4-chloro-3-((3aS,3bR,5aR,10aS,10bS,12aS)-10a,12a-dimethyl-3,3a,3b,4,5,5a,6,7,8,9,10,10a,10b,11,12,12a-hexadecahydrocyclohepta[a]cyclopenta[f]naphthalen-1-yl)pyridine] | 1 to 50
8 | C[C@]12CC(=O)C[C@@H]1CC[C@@H]1[C@@H]2CC[C@]2(C)C(n3ccnn3)=CC[C@@H]12 [Compound 110, (3aS,5aS)-3a,5a-dimethyl-6-(1H-1,2,3-triazol-1-yl)-3,3a,3b,4,5,5a,8,8a,8b,9,10,10a-dodecahydrodicyclopenta[a,f]naphthalen-2(1H)-one] | 1 to 50
9 | C[C@]12CCC(=O)NCC1CCC1C2CC[C@]2(C)C(n3ccnc3)=CCC12 (stereo partly drawn) [Compound 136, (5aR,7aS)-8-(1H-imidazol-1-yl)-5a,7a-dimethyl-1,2,5,5a,5b,6,7,7a,10,10a,10b,11,12,12a-tetradecahydrocyclopenta[5,6]naphtho[2,1-c]azepin-3(4H)-one] | 50 to 80

More lines, now with the values ahead:

Row | inhibition at 0.01 µM [%] | SMILES
10 | 1 to 50 | C[C@]12CCCCC[C@@H]1CC[C@@H]1[C@@H]2CC[C@]2(C)C(c3cccnc3)=CC[C@@H]12 [Compound 90, 3-((3aS,3bR,5aR,10aS,10bS,12aS)-10a,12a-dimethyl-3,3a,3b,4,5,5a,6,7,8,9,10,10a,10b,11,12,12a-hexadecahydrocyclohepta[a]cyclopenta[f]naphthalen-1-yl)pyridine]
11 | 1 to 50 | Cc1cncc(C2=CC[C@H]3[C@@H]4CC[C@H]5CCCCC[C@]5(C)[C@H]4CC[C@]23C)c1 [Compound 91, 3-((3aS,3bR,5aR,10aS,10bS,12aS)-10a,12a-dimethyl-3,3a,3b,4,5,5a,6,7,8,9,10,10a,10b,11,12,12a-hexadecahydrocyclohepta[a]cyclopenta[f]naphthalen-1-yl)-5-methylpyridine]
12 | 50 to 80 | COc1cncc(C2=CC[C@H]3[C@@H]4CC[C@H]5CCCCC[C@]5(C)[C@H]4CC[C@]23C)c1 [Compound 92, 3-((3aS,3bR,5aR,10aS,10bS,12aS)-10a,12a-dimethyl-3,3a,3b,4,5,5a,6,7,8,9,10,10a,10b,11,12,12a-hexadecahydrocyclohepta[a]cyclopenta[f]naphthalen-1-yl)-5-methoxypyridine]
13 | 1 to 50 | CCc1cncc(C2=CC[C@H]3[C@@H]4CC[C@H]5CCCCC[C@]5(C)[C@H]4CC[C@]23C)c1 [Compound 93, 3-((3aS,3bR,5aR,10aS,10bS,12aS)-10a,12a-dimethyl-3,3a,3b,4,5,5a,6,7,8,9,10,10a,10b,11,12,12a-hexadecahydrocyclohepta[a]cyclopenta[f]naphthalen-1-yl)-5-ethylpyridine]
14 | 1 to 50 | CCOc1cncc(C2=CC[C@H]3[C@@H]4CC[C@H]5CCCCC[C@]5(C)[C@H]4CC[C@]23C)c1 [Compound 94, 3-((3aS,3bR,5aR,10aS,10bS,12aS)-10a,12a-dimethyl-3,3a,3b,4,5,5a,6,7,8,9,10,10a,10b,11,12,12a-hexadecahydrocyclohepta[a]cyclopenta[f]naphthalen-1-yl)-5-ethoxypyridine]
15 | 1 to 50 | Cc1ccncc1C1=CC[C@H]2[C@@H]3CC[C@H]4CCCCC[C@]4(C)[C@H]3CC[C@]12C [Compound 95, 3-((3aS,3bR,5aR,10aS,10bS,12aS)-10a,12a-dimethyl-3,3a,3b,4,5,5a,6,7,8,9,10,10a,10b,11,12,12a-hexadecahydrocyclohepta[a]cyclopenta[f]naphthalen-1-yl)-4-methylpyridine]
16 | 1 to 50 | CCOc1cncc(C2=CC[C@H]3[C@@H]4CCC5N(C)C(=O)COC[C@]5(C)[C@H]4CC[C@]23C)c1 (stereo partly drawn) [Compound 99, (5aR,5bS,7aS,10aS,10bS)-8-(5-ethoxypyridin-3-yl)-1,5a,7a-trimethyl-5,5a,5b,6,7,7a,10,10a,10b,11,12,12a-dodecahydro-1H-cyclopenta[5,6]naphtho[2,1-e][1,4]oxazepin-2(3H)-one]
17 | 50 to 80 | C[C@]12CCNC(=O)CC[C@@H]1CC[C@@H]1[C@@H]2CC[C@]2(C)C(c3cccnc3)=CC[C@@H]12 [Compound 101, (6aS,6bS,8aS,11aS,11bR,13a5)-6a,8a-dimethyl-9-(pyridin-3-yl)-4,5,6,6a,6b,7,8,8a,11,11a,11b,12,13,13a-tetradecahydro-1H-cyclopenta[5,6]naphtho[1,2-d]azocin-3(2H)-one]
18 | 50 to 80 | CCOc1cncc(C2=CC[C@H]3[C@@H]4CC[C@H]5CCOCC[C@]5(C)[C@H]4CC[C@]23C)c1 [Compound 124, 3-((5aS,5bS,7aS,10aS,10bR,12aS)-5a,7a-dimethyl-2,4,5,5a,5b,6,7,7a,10,10a,10b,11,12,12a-tetradecahydro-1H-cyclopenta[5,6]naphtho[1,2-d]oxepin-8-yl)-5-ethoxypyridine]

Molecular target: T1, CYP17 (human testicular microsome)
Test: CYP17 enzymatic assay (% inhibition at 1 nM) (Biological Example 12)
Type: biochemical
Details: compound at 1 nM, read-out: CYP17 enzymatic assay % inhibition at 1 nM (Biological Example No. 12)

Row | inhibition at 0.001 µM [%] | SMILES
19 | > 50 | Cc1cncc(C2=CC=C3[C@@H]4CCC5CC(=O)NCC[C@]5(C)[C@H]4CC[C@]23C)c1 (stereo partly drawn) [Compound 460, (5aS,5bS,7aS,10bR)-5a,7a-dimethyl-8-(5-methylpyridin-3-yl)-3,4,5,5a,5b,6,7,7a,10b,11,12,12a-dodecahydrocyclopenta[5,6]naphtho[1,2-d]azepin-2(1H)-one]
